The nature of assay [1]: Displacement of [3H]RX821002 from alpha2 adrenergic receptor in human brain prefrontal cortex tissue by liquid scintillation spectrometry. The assay is classed as tissue-based. (Loss of bound radioactivity is the signal in a displacement assay; it reports binding, not function.)
Assay [2] can be described thus: Agonist activity at alpha2 adrenergic receptor in human brain prefrontal cortex tissue by [35S]GTPgamma S binding assay. The assay is classed as functional, tissue-based. For orientation: GTPγS is a poorly hydrolysed GTP analogue; its binding reports G protein activation.
Assay [3] can be described thus: Agonist activity at alpha2 adrenergic receptor in human brain prefrontal cortex tissue by [35S]GTPgamma S binding assay relative to UK-14304. The assay is classed as functional.
The test system of assay [4] is Rattus norvegicus. The assay can be described thus: Increase in extracellular noradrenaline levels in Sprague-Dawley rat brain prefrontal cortex at 1 to 100 uM, locally administered by microdialysis by relative to control.
For assay [5], the system named is Rattus norvegicus. The assay is described as follows: Increase in extracellular noradrenaline levels in Sprague-Dawley rat brain prefrontal cortex at 10 mg/kg, ip systematically administered by microdialysis by relative to control. The assay is classed as functional. The note with it: route intraperitoneal.

In general, pKi refers to the Ki on a negative log10 scale, so that one unit is a factor of ten. Low readings indicate a high Ki, high ones a low Ki. Take `Cl.c1ccc(Cc2ccc(NC3=NCCN3)cc2)cc1`: in assay [1], the pKi was found to be 6.85.

As to `CSc1ccc(NC(=N)N)cc1`, in assay [1], the pKi worked out at 6.4.

In assay [1], `CCc1ccc(NC(=N)N)cc1.Cl` showed a pKi of 5.55.

With `CSc1ccc(NC2=NCCN2)cc1`, the pKi in assay [1] amounted to 7.07.

Consider `c1cc2c(cc1NC1=NCCN1)Cc1cc(NC3=NCCN3)ccc1-2`, for which the negative-log Ki (pKi) in assay [1] was determined as 6.32.

In assay [1], `N=C(N)Nc1ccc2c(c1)OCO2` registered a pKi of 6.4.

What is called EC50 is the concentration at which the effect is half-maximal. Lower therefore signals higher potency in that assay. Broadly, the Emax is the greatest response seen or fitted, relative to the assay's reference. In assay [2], `Cl.c1cc2c(cc1NC1=NCCN1)CCCC2` yielded a 50% effective concentration (EC50) of 1.1 µM. Further, the maximal response (Emax) in assay [3] stood at 100%. In assay [1], this molecule returned a pKi of 7.33.

Molecule `c1ccc2c(c1)OCC(C1=NCCN1)O2` (stereo not given) [IDAZOXAN] came in with an Emax in assay [4] of 235%.

Turning to `COc1ccc(NC2=NCCN2)cc1`, the pKi in assay [1] came out at 7.77.

On to `N=C(N)Nc1ccc2c(c1)OCCO2`, for which, in assay [1], the negative logarithm of the Ki (pKi) was found to be 8.21.

The molecule `Cl.c1cc2c(cc1NC1=NCCN1)CCC2` registered a concentration giving a half-maximal response (EC50) in assay [2] of 4.4 µM. Besides, the Emax in assay [3] is 98%. In assay [1], this molecule returned a pKi of 8.26.

In assay [1], `Cl.c1ccc(NC2=NCCN2)cc1` registered a pKi of 6.48.

Take `Cl.N=C(N)Nc1ccc2c(c1)CCC2`: the pKi in assay [1] is recorded as 6.51.

For `N=C(N)Nc1ccc(N)cc1`, the negative logarithm of the Ki (pKi) in assay [1] is 5.58.

`N=C(N)Nc1ccc2c(c1)Cc1ccc(NC(=N)N)cc1C2`: the pKi in assay [1] came out at 7.96.

Molecule `Cc1ccc(NC2=NCCN2)cc1C.Cl` displayed an EC50 in assay [2] of 62.9 µM. The maximal effect (Emax) in assay [3] was 89%. This molecule displayed a pKi in assay [1] of 7.68.

Consider `CCc1ccc(NC2=NCCN2)cc1.Cl`, for which, in assay [1], the pKi is 6.68.

In assay [1], `Cc1ccc(NC(=N)N)cc1.Cl` registered a negative logarithm of the Ki (pKi) of 6.53.

`c1ccc(Nc2ccc(NC3=NCCN3)cc2)cc1`: the negative logarithm of the Ki (pKi) in assay [1] was 6.56.

Regarding `Cl.N=C(N)Nc1ccc2c(c1)CCCC2`, in assay [4], the Emax is 326%. In assay [5], this molecule registered an Activity of 373%. In assay [1], the pKi is recorded as 7.11.

For `N=C(N)Nc1ccc(Oc2ccccc2)cc1`, in assay [1], the negative logarithm of the Ki (pKi) was found to be 6.05.

Turning to `COC1(C2=NCCN2)COc2ccccc2O1` (stereo not given), the Emax in assay [4] was 287%. The molecule also showed a pKi in assay [1] of 9.04.

In assay [4], `c1cc(NC2=NCCN2)ccc1CCc1ccc(NC2=NCCN2)cc1` had a maximal response (Emax) of 255%. In assay [5], this molecule displayed an Activity of 156%. The pKi in assay [1] came out at 7.02.

The molecule `COc1ccc(NC(=N)N)cc1` had a pKi in assay [1] of 6.39.

In assay [1], `c1cc2c(cc1NC1=NCCN1)OCO2` returned a negative logarithm of the Ki (pKi) of 7.33.

`N=C(N)Nc1ccc(Nc2ccccc2)cc1` displayed a pKi in assay [1] of 6.83.

`c1cc2c(cc1NC1=NCCN1)OCCO2` yielded a pKi in assay [1] of 7.85.

As to `c1ccc(Sc2ccc(NC3=NCCN3)cc2)cc1`, the pKi in assay [1] is on record as 6.62.

Take `c1ccc(Oc2ccc(NC3=NCCN3)cc2)cc1`: the pKi in assay [1] was 6.58. This pKi and that of the molecule before are within 0.2 log units of each other.

With `Cl.N=C(N)Nc1ccc(Cc2ccccc2)cc1`, in assay [1], the negative-log Ki (pKi) amounted to 6.38.

Molecule `Cc1ccc(NC2=NCCN2)cc1.Cl` registered a 50% effective concentration (EC50) in assay [2] of 15.2 µM. For the same molecule, in assay [3], the Emax worked out at 97%. Also, in assay [1], the pKi was determined as 7.82.

As for `N=C(N)Nc1ccc(Sc2ccccc2)cc1`, in assay [1], the negative logarithm of the Ki (pKi) came to 6.3.

Consider `Nc1ccc(NC2=NCCN2)cc1`, for which the negative-log Ki (pKi) in assay [1] came to 6.92.

`Cl.N=C(N)Nc1ccccc1` came in with a pKi in assay [1] of 6.19.

For the molecule `N=C(N)Nc1ccc2c(c1)Cc1cc(NC(=N)N)ccc1-2`, the negative logarithm of the Ki (pKi) in assay [1] is 6.12.

Regarding `c1cc2c(cc1NC1=NCCN1)Cc1ccc(NC3=NCCN3)cc1C2`, in assay [1], the pKi worked out at 7.58.

With `N=C(N)Nc1ccc(CCc2ccc(NC(=N)N)cc2)cc1`, in assay [1], the negative logarithm of the Ki (pKi) amounted to 5.88.

The record behind these values is ChEMBL document CHEMBL1150343, “Guanidine and 2-aminoimidazoline aromatic derivatives as alpha2-adrenoceptor antagonists. 2. Exploring alkyl linkers for new antidepressants” (J Med Chem, 2008).
